# Test results taken from ChEMBL document CHEMBL1201862, “PubChem BioAssay data set” (2004).
# Calls of active or inactive are those of the source.
# Assays:
# [1] = IGROV1 cell killing – plate reader, dry powder samples, PAX8 inhibitor project, dose response (AID 743043); format: functional, cell-based; settings: IGROV-1
# [2] = OVCAR8 cell viability loss – plate reader, dry powder samples, PAX8 project, dose response (AID 743197); format: functional, cell-based; settings: OVCAR-8
# [3] = general mammalian cell viability loss – activator set, cherry-pick, cytotoxicity control for miR-122 modulator project, dose response (AID 720690); format: functional, cell-based;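 further: HEK293T human cells scored for general mammalian cytotoxicity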
# [4] = general mammalian cell viability loss – inhibitor set, cherry-pick, set 2, cytotoxicity control for miR-122 modulator project, dose response (AID 720697); format: functional, cell-based
# [5] = OVCAR-3 cell viability loss – plate reader, dry powder samples, PAX8 inhibitor project, dose response (AID 743044); format: functional, cell-based
# [6] = activation of miR-122 Renilla sensor silencing – cell-based, Huh7 psiCHECK-miR122, Renilla luciferase, cherry-picked, dose response (AID 651956); format: functional;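 further: huh7 hepatoma cells stably carrying a psiCHECK-2 miR-122 sensor plasmid; renilla luciferase signal reporting endogenous miR-122 activity after 48 h compound exposure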
# [7] = target: Potassium channel subfamily K member 9 (Homo sapiens, UniProt Q9NPC2); assay: KCNK9 flux blockade, concentration-response – cell-based, FluxOR thallium flux, selectivity assay for TASK1 inhibitor project, SAR follow-up (AID 652211); format: functional;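 further: potency is for inhibitors of the channel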
# cells = format: functional, cell-based; settings: HEK-CNG
# Protein RecA = target: T1, Protein RecA (Mycobacterium tuberculosis, UniProt P9WHJ3); assay: Fluorescence Cell-Free Homogeneous Dose Retest to Identify Inhibitors of RecA-Intein Splicing Activity. [Related pubchem assays (depositor defined):AID2097, AID2223, AID489010, AID492950]; format: functional
# T1 sequence (P9WHJ3 whole entry): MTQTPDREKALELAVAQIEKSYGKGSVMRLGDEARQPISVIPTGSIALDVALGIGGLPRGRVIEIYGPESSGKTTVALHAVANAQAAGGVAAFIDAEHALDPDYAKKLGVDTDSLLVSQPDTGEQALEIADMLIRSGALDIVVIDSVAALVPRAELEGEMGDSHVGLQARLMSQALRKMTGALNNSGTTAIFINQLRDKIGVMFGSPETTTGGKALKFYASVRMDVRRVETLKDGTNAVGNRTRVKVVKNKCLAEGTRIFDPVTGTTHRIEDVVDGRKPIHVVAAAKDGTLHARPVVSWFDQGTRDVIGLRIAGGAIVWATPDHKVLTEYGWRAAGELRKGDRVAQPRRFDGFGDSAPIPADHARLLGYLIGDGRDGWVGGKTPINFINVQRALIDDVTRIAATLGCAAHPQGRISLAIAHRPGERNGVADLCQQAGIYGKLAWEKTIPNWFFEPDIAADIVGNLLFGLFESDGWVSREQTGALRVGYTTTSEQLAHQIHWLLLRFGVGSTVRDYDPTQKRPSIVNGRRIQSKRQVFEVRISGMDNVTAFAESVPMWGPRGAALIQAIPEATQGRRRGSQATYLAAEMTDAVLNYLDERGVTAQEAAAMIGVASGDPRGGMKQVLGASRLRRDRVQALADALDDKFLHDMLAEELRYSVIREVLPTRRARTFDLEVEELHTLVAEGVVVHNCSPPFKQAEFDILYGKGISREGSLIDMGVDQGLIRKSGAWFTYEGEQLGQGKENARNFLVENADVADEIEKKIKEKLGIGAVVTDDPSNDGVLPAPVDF
# Galanin receptor type 3 = Galanin receptor type 3 (Homo sapiens, UniProt O60755); assay: Fluorescence-based cell-based primary high throughput dose response assay to identify antagonists of the Galanin Receptor 3 (GalR3).; format: functional
# [8] = target: T2, Replicative DNA helicase DnaB (Mycobacterium tuberculosis, UniProt P9WMR3); assay: DnaB intein splicing inhibitors, dose response, biochemical, cell-free fluorescence (AID 449749); format: functional
# T2 sequence (P9WMR3 whole entry): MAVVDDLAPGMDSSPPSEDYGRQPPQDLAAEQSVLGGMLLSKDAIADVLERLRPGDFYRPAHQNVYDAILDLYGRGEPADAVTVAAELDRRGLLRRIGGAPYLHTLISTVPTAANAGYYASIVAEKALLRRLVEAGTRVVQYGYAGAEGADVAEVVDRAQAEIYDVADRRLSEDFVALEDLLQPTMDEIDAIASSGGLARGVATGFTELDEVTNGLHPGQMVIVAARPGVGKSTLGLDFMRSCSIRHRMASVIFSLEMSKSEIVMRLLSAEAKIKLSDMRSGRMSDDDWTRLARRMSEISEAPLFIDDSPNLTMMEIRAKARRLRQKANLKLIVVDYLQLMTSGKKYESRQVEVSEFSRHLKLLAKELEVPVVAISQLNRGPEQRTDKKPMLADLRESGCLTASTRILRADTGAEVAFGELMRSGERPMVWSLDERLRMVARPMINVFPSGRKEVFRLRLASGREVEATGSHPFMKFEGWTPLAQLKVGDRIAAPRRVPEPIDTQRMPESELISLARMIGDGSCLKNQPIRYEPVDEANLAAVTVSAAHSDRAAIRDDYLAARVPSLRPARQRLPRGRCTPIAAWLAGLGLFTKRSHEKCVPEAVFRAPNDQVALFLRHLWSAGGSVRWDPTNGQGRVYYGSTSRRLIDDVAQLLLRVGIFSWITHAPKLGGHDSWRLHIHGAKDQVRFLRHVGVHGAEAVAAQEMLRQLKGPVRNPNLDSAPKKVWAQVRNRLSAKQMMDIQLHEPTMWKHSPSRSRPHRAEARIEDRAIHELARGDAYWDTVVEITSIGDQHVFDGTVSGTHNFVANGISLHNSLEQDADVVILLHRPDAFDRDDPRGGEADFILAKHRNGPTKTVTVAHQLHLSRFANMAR
# Paired box protein Pax-8 = Paired box protein Pax-8 (Homo sapiens, UniProt Q06710); assay: PAX8 transcriptional activity inhibition in RMG-I – RMG-I cells, luciferase, cherry-pick, dose response (AID 687027); format: functional, cell-based;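 further: luciferase reporter driven by Pax8 target thyroperoxidase promoter measured by SteadyGlo luminescence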
# [9] = OVCAR4 cell viability loss – plate reader, dry powder, SA11, cytotoxicity control for PAX8 inhibitor project, dose response (AID 743150); format: functional, cell-based; settings: OVCAR-4
# [10] = PAX8-dependent cell viability loss – plate reader, dry powder, dose response (AID 743049); format: functional, cell-based
# [11] = OV-90 cell viability loss – plate reader, dry powder, SA8, PAX8 inhibitor project, dose response (AID 743149); format: functional, cell-based
# [12] = COV434 cell viability loss – plate reader, dry powder, SA7, cytotoxicity control for PAX8 inhibitor project, dose response (AID 743145); format: functional, cell-based
# [13] = COV362 cell viability loss – plate reader, dry powder, SA12, cytotoxicity control for PAX8 inhibitor project, dose response (AID 743144); format: functional, cell-based
# [14] = inhibitors acting on PAX2 in cells – cell-based, plate reader, dry powder samples, selectivity assay for PAX8 inhibitor project, dose response (AID 743048); format: functional;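 further: HEK293 cells carrying a WT1 promoter luciferase reporter driven by expressed Pax2; potency is for inhibition of Pax2 driven reporter signal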
# [15] = PAX5 cellular inhibition readout – cell-based, plate reader, dry powder samples, selectivity assay for PAX8 inhibitor project, dose response (AID 743047); format: functional;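 further: HEK293 cells carrying a Pax5 driven CD19 promoter luciferase reporter; potency of inhibitors that lower reporter luminescence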
# [16] = non-specific 3'UTR reporter inhibition in Clone20-Shn3RL – cell-based, Renilla luciferase, cherry-picked, counter-screen for Shn3 inhibitor project, dose response (AID 624133); format: functional
# [17] = reduction of Shn3 3'UTR-driven luciferase in osteoblasts – cell-based, Clone20 osteoblasts, firefly luciferase, cherry-picked, dose response (AID 624132); format: functional;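 further: firefly luciferase luminescence from reporter carrying the Shn3 3'UTR in osteoblasts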
# [18] = EF1alpha-driven Renilla reporter with control 3'UTR suppression – Clone20-Shn3RL cells, dual-Glo, cherry-pick, set 2, counter-screen for Shn3 3'UTR targeting project, dose response (AID 720724); format: functional, cell-based; settings: Dual-Go Shn3RL
# [19] = Shn3 3'UTR reporter signal decrease – cell-based, Clone20 osteoblasts, firefly luciferase, cherry-pick, set 2, Schnurri-3 inhibitor project, dose response (AID 720490); format: functional;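 further: actives lower the luminescence signal as inhibitors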
# [20] = loss of viability in HepG2 cells – cell-based, CellTiter-Glo, cherry-picked, cytotoxicity control for Shn3 inhibitor project, dose response (AID 624134); format: functional
# Sequence of Galanin receptor type 3 (O60755 whole entry): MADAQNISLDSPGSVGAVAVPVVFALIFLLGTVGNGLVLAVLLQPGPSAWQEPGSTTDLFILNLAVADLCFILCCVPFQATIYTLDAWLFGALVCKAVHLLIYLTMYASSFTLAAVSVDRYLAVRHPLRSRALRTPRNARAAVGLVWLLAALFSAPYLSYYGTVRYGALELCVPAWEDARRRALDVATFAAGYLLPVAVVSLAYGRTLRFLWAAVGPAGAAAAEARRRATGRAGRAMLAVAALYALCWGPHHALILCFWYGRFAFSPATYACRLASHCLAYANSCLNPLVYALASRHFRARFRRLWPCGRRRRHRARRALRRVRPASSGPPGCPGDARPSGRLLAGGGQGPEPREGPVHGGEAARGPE
# Sequence of Potassium channel subfamily K member 9 (Q9NPC2 whole entry): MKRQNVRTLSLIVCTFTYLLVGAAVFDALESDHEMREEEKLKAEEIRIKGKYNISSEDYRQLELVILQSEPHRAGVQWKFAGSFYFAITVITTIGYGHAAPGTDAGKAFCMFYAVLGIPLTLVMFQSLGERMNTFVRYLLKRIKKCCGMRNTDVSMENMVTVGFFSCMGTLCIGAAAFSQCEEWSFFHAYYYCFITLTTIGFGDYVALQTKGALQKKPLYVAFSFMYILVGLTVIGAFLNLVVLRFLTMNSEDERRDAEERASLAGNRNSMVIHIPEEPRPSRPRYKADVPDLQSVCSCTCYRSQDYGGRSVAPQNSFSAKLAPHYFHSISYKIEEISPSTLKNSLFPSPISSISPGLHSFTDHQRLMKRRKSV
# Sequence of Paired box protein Pax-8 (Q06710 whole entry): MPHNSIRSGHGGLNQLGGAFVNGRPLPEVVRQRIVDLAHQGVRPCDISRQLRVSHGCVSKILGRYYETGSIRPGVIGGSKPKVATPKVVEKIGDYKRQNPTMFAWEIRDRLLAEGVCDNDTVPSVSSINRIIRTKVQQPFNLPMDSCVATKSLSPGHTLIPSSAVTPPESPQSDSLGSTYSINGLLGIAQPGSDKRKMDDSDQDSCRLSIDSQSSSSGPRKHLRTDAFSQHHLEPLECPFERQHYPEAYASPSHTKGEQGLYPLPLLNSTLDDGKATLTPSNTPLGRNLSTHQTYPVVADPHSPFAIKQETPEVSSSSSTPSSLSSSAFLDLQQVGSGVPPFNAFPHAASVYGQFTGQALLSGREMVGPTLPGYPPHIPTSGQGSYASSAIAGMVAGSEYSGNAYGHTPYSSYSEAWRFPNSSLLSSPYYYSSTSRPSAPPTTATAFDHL
smiles,measurement,setting,value
C[C@H]1CCCCO[C@H](CN(C)Cc2ccccc2)[C@@H](C)CN([C@@H](C)CO)C(=O)c2cc(NC(=O)Nc3ccc(C(F)(F)F)cc3)ccc2O1,AC50,[1],23.4 µM (active)
same,AC50,[2],21.4 µM (active)
same,AC50,[3],11.3 µM (active)
same,AC50,[4],8.18 µM (active)
same,AC50,[5],22.8 µM (active)
same,AC50,[6],6.32 µM (active)
Cc1cccc(C(=O)Nc2cccc(NC(=O)c3ccccc3C(C)C)c2)c1,IC50,[7],2.39 µM (active)
Cc1cc(C)c(C#N)c(SCc2n[nH]c3c2C(c2ccc(F)cc2)C(C#N)=C(N)O3)n1 (centres undefined),EC50,cells,> 29.9 µM (inactive)
same,EC50,Protein RecA,11.2 µM (active)
same,IC50,Galanin receptor type 3,> 29.9 µM (inactive)
same,AC50,[8],6.74 µM (active)
COc1ccc(CN(C)C[C@H]2OCCCC[C@H](C)Oc3ccc(NC(=O)Nc4ccc(C(F)(F)F)cc4)cc3C(=O)N([C@@H](C)CO)C[C@H]2C)cc1,AC50,[1],25.1 µM (active)
same,AC50,Paired box protein Pax-8,5.98 µM (active)
same,AC50,[9],40.5 µM (active)
same,AC50,[10],14.4 µM (active)
same,AC50,[2],22 µM (active)
same,AC50,[11],33.7 µM (active)
same,AC50,[12],34.4 µM (active)
same,AC50,[13],> 70 µM (inactive)
same,AC50,[5],22.4 µM (active)
same,AC50,[14],31.6 µM (active)
same,AC50,[15],> 70 µM (inactive)
Cc1ccnc(SCC(=O)Nc2sc3c(c2C#N)CCCC3)n1,EC50,cells,> 29.9 µM (inactive)
same,AC50,[16],5 µM (active)
same,IC50,Galanin receptor type 3,> 1.11 µM (active)
same,AC50,[17],0.955 µM (active)
same,AC50,[18],11.9 µM (active)
same,AC50,[19],1.18 µM (active)
same,AC50,[20],66.8 µM (active)
